This is an account of results in ChEMBL document CHEMBL1201862, “PubChem BioAssay data set” (2004).

The EC50 is the concentration at which the effect is half-maximal. For orientation: IC50 means the concentration that inhibits the measured activity by half. What is called AC50 is the concentration at which the activity in the assay is half-maximal.

Active and inactive are the calls of the source.

Assay [1] concerns the target Beta-2 adrenergic receptor (Homo sapiens, UniProt P07550). As to the kind of experiment: ADRB2 activation measured by internalization – cell-based, FAP fluorogen, flow cytometry, cherry pick 1, dose response (AID 588763). It counts as functional. (In general: Flow cytometry measures light scatter and fluorescence of single cells or particles in a stream.)
The target of assay [2] is T1, Carboxy-terminal domain RNA polymerase II polypeptide A small phosphatase 1 (Homo sapiens, UniProt Q9GZU7).
T1 sequence (Q9GZU7 whole entry): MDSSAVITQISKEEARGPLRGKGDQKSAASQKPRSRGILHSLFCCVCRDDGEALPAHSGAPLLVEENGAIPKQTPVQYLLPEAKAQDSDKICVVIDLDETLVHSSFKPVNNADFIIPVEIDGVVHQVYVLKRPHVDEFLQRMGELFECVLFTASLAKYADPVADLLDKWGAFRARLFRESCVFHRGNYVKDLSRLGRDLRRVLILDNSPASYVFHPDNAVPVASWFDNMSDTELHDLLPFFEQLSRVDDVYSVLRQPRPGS
In words: CTDSP1 inhibitors, concentration-response, biochemical, absorbance readout, ultra-high-throughput screen actives (AID 540297). The class given is functional.

Assay [3] concerns the target T2, High affinity choline transporter 1 (Homo sapiens, UniProt Q9GZV3).
T2 sequence (Q9GZV3 whole entry): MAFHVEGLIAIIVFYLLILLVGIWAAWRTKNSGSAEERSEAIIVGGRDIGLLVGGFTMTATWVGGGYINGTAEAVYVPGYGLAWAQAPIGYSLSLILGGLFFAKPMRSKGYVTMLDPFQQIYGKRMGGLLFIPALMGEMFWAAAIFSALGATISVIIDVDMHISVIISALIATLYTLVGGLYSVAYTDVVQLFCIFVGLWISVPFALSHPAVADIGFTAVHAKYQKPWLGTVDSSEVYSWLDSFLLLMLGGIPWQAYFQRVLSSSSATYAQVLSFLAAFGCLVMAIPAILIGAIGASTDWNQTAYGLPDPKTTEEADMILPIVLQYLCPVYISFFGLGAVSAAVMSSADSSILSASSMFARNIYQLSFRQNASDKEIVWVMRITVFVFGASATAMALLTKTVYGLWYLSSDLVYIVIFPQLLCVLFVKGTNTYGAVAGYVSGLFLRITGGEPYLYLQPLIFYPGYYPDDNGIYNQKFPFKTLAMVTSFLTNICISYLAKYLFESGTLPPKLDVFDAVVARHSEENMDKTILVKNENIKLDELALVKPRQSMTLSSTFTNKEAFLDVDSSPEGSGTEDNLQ
As to the kind of experiment: human choline transporter blockers, potency – cell-based, 5-point CRC, membrane potential dye, dose response (AID 504840). The class given is functional.

Assay [4] deals with T3, Protein skinhead-1 (Caenorhabditis elegans, UniProt P34707).
T3 sequence (P34707 whole entry): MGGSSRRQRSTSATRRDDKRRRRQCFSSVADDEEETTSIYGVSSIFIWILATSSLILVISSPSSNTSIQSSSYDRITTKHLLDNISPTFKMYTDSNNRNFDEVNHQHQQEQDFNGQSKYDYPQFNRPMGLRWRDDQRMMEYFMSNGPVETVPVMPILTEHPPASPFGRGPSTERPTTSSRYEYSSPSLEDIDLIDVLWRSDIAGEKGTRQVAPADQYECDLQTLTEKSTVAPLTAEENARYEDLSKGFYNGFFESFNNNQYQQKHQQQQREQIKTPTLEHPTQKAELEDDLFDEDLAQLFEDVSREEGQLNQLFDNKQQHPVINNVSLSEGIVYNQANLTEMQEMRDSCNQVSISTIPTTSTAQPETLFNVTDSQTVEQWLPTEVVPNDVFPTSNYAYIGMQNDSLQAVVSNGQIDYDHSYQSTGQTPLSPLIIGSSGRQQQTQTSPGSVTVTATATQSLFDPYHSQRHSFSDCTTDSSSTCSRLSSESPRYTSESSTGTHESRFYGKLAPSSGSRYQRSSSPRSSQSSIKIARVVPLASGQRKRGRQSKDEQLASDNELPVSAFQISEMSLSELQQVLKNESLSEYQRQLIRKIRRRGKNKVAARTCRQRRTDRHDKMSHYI
It counts as functional.

Assay [5] deals with Cytochrome P450 3A4 (Homo sapiens, UniProt P08684).
Cytochrome P450 3A4, sequence (P08684 whole entry): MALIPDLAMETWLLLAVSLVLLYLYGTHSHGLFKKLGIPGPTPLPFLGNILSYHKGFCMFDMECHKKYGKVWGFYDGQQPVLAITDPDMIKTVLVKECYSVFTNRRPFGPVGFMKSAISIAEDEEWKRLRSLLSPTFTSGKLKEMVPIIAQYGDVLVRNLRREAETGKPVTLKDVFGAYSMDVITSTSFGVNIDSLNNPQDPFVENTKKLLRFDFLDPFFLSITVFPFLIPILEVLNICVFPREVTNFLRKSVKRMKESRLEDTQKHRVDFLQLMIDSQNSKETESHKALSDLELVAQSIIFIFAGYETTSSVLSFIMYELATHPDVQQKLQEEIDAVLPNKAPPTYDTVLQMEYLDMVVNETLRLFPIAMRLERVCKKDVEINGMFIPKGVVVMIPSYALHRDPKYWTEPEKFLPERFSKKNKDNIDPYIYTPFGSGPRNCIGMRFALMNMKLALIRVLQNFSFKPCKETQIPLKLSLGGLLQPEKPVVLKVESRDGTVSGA
For assay [6], the target named is T4, Short transient receptor potential channel 4 (Mus musculus, UniProt Q9QUQ5).
T4 sequence (Q9QUQ5 whole entry): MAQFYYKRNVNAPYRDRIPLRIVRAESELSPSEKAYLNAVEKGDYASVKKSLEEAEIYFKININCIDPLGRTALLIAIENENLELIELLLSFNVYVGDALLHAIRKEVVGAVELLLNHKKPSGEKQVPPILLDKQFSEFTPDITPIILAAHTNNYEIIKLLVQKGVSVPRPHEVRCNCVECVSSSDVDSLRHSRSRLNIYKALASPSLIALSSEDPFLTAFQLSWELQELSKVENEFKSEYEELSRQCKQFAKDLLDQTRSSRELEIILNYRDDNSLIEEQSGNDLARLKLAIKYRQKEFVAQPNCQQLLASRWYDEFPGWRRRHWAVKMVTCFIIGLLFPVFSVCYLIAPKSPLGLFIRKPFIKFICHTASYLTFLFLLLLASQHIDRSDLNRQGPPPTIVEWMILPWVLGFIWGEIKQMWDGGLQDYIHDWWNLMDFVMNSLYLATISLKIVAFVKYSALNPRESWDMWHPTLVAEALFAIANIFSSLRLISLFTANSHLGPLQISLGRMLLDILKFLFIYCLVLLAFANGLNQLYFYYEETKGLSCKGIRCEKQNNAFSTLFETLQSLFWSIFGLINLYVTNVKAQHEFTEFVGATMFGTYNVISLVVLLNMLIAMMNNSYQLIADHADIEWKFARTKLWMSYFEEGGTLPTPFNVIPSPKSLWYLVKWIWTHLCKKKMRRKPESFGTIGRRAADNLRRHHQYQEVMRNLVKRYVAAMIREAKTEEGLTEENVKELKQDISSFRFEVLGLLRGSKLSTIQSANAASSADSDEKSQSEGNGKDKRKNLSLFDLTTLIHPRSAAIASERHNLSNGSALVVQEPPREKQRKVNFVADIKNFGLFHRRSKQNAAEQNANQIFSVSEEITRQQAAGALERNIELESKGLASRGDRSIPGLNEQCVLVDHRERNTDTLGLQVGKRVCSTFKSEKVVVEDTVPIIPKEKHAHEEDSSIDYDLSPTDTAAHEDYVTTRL
As to the kind of experiment: block of DAMGO-driven TRPC4 calcium entry – cell-based, HEK293 TRPC4/mu-opioid, Fluo-4 calcium, dose response (AID 434942).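 Further: potency of inhibitors blocking the TRPC4 calcium response.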 The class given is functional.

The target in assay [7] is T5, Caspase-3 (Homo sapiens, UniProt P42574).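 Further: Dose-response selectivity test against caspase-3 for candidate inhibitors of sentrin-specific proteases (SENPs).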
T5 sequence (P42574 whole entry): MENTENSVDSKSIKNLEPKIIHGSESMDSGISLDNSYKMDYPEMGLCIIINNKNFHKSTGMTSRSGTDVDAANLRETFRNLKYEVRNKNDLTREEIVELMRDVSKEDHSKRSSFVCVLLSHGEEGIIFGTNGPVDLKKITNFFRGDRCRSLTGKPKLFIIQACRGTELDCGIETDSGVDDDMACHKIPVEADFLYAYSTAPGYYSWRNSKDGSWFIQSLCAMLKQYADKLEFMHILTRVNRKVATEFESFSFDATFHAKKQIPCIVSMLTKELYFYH
It counts as functional.

Assay [8] deals with T6, Sentrin-specific protease 7 (Homo sapiens, UniProt Q9BQF6).
T6 sequence (Q9BQF6 whole entry): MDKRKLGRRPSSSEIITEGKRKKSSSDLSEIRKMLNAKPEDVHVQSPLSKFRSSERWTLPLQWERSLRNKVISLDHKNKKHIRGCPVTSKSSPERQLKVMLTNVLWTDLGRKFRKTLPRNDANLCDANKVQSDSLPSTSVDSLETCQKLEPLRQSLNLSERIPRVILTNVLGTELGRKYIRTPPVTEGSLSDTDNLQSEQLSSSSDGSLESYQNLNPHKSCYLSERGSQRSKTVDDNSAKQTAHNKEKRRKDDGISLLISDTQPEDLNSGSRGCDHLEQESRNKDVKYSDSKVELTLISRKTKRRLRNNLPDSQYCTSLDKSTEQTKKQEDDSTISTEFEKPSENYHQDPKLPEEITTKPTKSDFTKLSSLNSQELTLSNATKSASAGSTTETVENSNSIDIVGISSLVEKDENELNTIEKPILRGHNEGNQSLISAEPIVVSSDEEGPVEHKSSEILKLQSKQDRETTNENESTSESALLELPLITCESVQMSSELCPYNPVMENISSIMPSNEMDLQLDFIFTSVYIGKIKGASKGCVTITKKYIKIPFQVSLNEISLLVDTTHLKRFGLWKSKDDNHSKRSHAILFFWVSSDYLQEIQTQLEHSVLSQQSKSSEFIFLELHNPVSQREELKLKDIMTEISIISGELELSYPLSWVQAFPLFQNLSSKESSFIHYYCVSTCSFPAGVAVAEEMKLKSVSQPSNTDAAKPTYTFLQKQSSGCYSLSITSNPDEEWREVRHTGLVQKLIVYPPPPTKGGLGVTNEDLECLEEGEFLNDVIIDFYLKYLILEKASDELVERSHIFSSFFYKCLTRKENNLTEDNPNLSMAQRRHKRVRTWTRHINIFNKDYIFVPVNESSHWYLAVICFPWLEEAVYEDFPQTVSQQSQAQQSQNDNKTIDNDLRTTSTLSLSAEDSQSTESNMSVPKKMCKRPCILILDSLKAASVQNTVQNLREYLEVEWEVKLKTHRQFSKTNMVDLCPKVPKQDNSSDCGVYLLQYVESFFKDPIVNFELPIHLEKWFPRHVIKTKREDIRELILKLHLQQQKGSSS
The class given is functional.

In assay [9] the target is T7, Sentrin-specific protease 6 (Homo sapiens, UniProt Q9GZR1).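 Further: Luminescence-based dose-response confirmatory assay of SENP6 inhibition, following up an ultra-high-throughput screen.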
T7 sequence (Q9GZR1 whole entry): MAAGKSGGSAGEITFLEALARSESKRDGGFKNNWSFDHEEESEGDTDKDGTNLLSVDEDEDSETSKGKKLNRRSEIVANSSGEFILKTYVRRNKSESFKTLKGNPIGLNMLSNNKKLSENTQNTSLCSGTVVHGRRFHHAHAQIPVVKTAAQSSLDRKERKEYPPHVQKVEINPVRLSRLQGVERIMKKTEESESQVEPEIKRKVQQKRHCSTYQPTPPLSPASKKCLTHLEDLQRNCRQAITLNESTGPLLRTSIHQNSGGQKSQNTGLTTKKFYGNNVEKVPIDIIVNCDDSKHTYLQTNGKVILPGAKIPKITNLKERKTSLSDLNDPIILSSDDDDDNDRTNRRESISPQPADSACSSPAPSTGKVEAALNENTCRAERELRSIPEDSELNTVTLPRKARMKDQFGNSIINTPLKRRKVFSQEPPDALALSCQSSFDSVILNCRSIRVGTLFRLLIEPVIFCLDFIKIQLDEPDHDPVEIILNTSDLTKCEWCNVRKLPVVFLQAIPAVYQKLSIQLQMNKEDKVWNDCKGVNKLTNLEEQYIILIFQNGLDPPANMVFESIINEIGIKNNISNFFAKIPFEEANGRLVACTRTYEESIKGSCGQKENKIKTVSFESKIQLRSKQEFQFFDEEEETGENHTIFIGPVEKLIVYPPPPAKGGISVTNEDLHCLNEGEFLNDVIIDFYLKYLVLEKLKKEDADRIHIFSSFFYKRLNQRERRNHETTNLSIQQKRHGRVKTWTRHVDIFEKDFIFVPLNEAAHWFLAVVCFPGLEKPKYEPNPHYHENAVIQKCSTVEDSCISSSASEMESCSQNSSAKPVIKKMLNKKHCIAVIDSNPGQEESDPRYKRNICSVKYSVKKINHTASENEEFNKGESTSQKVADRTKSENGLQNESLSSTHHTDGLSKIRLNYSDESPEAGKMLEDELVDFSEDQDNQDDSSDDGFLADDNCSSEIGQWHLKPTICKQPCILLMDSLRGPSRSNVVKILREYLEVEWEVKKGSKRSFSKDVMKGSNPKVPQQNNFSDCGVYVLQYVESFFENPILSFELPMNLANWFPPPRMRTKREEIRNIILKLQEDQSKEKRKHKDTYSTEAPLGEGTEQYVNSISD
It counts as functional.

For assay [10], the target named is T8, Sentrin-specific protease 8 (Homo sapiens, UniProt Q96LD8).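 Further: luminescence read-out of SENP8 inhibition, dose-response confirmation following an ultra-high-throughput screen.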
T8 sequence (Q96LD8 whole entry): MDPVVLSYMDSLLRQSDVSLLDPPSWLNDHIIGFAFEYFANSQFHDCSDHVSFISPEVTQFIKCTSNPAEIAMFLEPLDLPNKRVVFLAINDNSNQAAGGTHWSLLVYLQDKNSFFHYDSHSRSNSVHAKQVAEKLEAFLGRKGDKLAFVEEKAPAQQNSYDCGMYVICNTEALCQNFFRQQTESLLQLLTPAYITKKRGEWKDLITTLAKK
The class given is functional.

In assay [11] the target is DNA dC->dU-editing enzyme APOBEC-3A (Homo sapiens, UniProt P31941). As to the kind of experiment: Dose Response confirmation of small molecule APOBEC3A DNA Deaminase Inhibitors via a fluorescence-based single-stranded DNA deaminase assay. [Related pubchem assays (depositor defined):AID493011, AID493024]. It counts as functional.
DNA dC->dU-editing enzyme APOBEC-3A, sequence (P31941 whole entry): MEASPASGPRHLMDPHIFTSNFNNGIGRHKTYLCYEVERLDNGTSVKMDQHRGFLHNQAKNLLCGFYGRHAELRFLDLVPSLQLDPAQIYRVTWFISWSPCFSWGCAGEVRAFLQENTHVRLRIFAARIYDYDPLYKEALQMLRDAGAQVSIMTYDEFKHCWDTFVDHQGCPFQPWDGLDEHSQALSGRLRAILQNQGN
Assay [12] addresses DNA dC->dU-editing enzyme APOBEC-3G (Homo sapiens, UniProt Q9HC16). The class given is functional.
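Wherever AC50 is given: CYP3A4 tested as one member of a cytochrome P450 panel screen.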

Beta-2 adrenergic receptor, sequence (P07550 whole entry, the tested form may be a part): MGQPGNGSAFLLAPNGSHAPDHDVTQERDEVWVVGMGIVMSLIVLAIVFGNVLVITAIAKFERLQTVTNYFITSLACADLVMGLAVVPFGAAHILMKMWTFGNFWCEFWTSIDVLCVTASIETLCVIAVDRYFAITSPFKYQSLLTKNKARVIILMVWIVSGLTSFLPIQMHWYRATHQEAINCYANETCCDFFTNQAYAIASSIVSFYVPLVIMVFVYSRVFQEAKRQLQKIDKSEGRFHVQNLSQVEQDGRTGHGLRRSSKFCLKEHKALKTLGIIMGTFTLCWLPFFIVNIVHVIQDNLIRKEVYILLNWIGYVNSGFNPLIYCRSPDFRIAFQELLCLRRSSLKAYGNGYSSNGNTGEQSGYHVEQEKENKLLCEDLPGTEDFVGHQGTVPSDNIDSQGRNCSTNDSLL
DNA dC->dU-editing enzyme APOBEC-3G, sequence (Q9HC16 whole entry): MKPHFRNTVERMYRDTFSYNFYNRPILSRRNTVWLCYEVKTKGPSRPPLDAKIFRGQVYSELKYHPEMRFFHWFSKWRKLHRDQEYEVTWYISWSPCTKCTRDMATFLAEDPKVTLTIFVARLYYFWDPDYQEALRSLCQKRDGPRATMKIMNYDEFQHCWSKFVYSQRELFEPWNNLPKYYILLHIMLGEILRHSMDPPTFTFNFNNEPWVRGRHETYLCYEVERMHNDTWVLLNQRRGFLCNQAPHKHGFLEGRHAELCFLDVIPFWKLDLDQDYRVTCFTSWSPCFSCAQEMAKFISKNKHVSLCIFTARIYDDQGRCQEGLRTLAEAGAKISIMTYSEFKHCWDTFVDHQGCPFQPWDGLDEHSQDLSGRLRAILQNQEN

Consider `COc1ccc(C2=NN(C(=O)c3cccs3)C(c3ccc(OC)cc3)C2)cc1` (stereo not given), for which the EC50 in assay [1] was 4.84 µM (active).

With `C[C@H]1CN([C@@H](C)CO)C(=O)Cc2cc(NS(=O)(=O)c3cn(C)cn3)ccc2O[C@@H]1CN(C)C(=O)Nc1ccc(F)cc1`, in [2], the IC50 is 33.7 µM (active).

Consider `CC(C)OC(=O)CN1CCN(C2c3ccccc3-c3ccccc32)CC1`, for which the results for the IC50 in assay [3] and in assay [4] were 10.7 µM (active) and > 100 µM (inactive), respectively. In addition, the AC50 in assay [5] is 25.1 µM (inconclusive).

Regarding `Cn1c(-c2ccccc2)cnc1NCc1ccccc1`, the EC50 in assay [6] is 5.31 µM (active). In addition, in assay [3], the 50% inhibitory concentration (IC50) was 11.5 µM (active).

As for `CS(=O)(=O)Nc1ccc(C(=O)Nc2ccc3ccccc3c2)cc1`, the IC50 in assay [7] was 6.3 µM (active); in [8], 2.98 µM (active); in assay [9] it was > 100 µM (inactive); in assay [10], > 100 µM (inactive).

Take `Cc1ncc(CN2CCCC(C(=O)Nc3ccc(-c4cccc(F)c4)cc3)C2)cn1` (stereo not given): in [1], the EC50 was 0.695 µM (active).

Turning to `C[n+]1ccc(C(=O)NCc2ccccc2)cc1` [ENISAMIUM IODIDE], the figures for the IC50 in assay [11], in [12] and in assay [2] were 2.98 µM (active), 4.98 µM (active) and 9.76 µM (active), respectively.
